Data: patent publication US20150105252A1, “SUBSTITUTED PYRAZOLES AS HERBICIDES” (E I DU PONT DE NEMOURS AND COMPANY, priority 2013, published 2015)

How the values were obtained:
foxtail, giant = test: Test C postemergence; format: in vivo, Setaria faberii
How it was run: (§1)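 Herbicidal effect is expressed as percent visual control (0–100) judged against untreated plants 13 to 15 days after treatment in the greenhouse. Preemergence pots contained seeds in a soil–sand blend; postemergence plants, 2–18 cm tall, grew in peat-based planting medium.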

nutsedge, yellow = test: Test C postemergence; format: in vivo, Cyperus esculentus
How it was run: as §1

soybean [1] = test: Test C preemergence; format: in vivo, Glycine max; conditions: for Soybean plant response rating: scale 0 to 100 (0 no effect, 100 complete control)
How it was run: as §1

morningglory = test: Test A postemergence; format: in vivo, Ipomoea spp.
How it was run: (§2)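 Scoring was visual, on a scale where 100 means complete control and 0 means no effect, comparing treated with untreated plants around 10 days post-application. Compounds in surfactant-containing non-phytotoxic solvent were sprayed onto soil preemergence or onto one- to two-leaf seedlings (2–10 cm) postemergence.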

ragweed [2] = test: Test C postemergence; format: in vivo, Ambrosia elation
How it was run: as §1

johnsongrass = test: Test C postemergence; format: in vivo, Sorghum halepense
How it was run: as §1

barnyardgrass = test: Test C preemergence; format: in vivo, Echinochloa crus-galli; conditions: for Barnyardgrass plant response rating: scale 0 to 100 (0 no effect, 100 complete control)
How it was run: as §1

soybean [3] = test: Test C postemergence; format: in vivo, Glycine max
How it was run: as §1

waterhemp = test: Test C preemergence; format: in vivo, Amaranthus rudis; conditions: for Waterhemp plant response rating: scale 0 to 100 (0 no effect, 100 complete control)
How it was run: as §1

velvetleaf = test: Test C preemergence; format: in vivo, Abutilon theophrasti; conditions: for Velvetleaf plant response rating: scale 0 to 100 (0 no effect, 100 complete control)
How it was run: as §1

oilseed rape = test: Test C postemergence; format: in vivo, Brassica napus
How it was run: as §1

ragweed [4] = test: Test C preemergence; format: in vivo, Ambrosia elation; conditions: for Ragweed plant response rating: scale 0 to 100 (0 no effect, 100 complete control)
How it was run: as §1

corn = test: Test C postemergence; format: in vivo, Zea mays
How it was run: as §1

crabgrass, large = test: Test A preemergence; format: in vivo, Digitaria sanguinalis; conditions: preemergence
How it was run: as §2

wheat = test: Test A preemergence; format: in vivo, Triticum aestivum; conditions: preemergence
How it was run: as §2

ryegrass, Italian = test: Test C postemergence; format: in vivo, Lolium multiflorum
How it was run: as §1

[5] = Postemergence, 31 g ai/ha, visually evaluated after 13 to 15 days
[6] = postemergence, 62 g ai/ha, scale 0 to 100
[7] = postemergence, 250 g ai/ha, scale 0 to 100 (0 no effect, 100 complete control)
[8] = postemergence, 125 g ai/ha, scale 0 to 100, 0 no effect, 100 complete control
[9] = preemergence, 31 g ai/ha, visual rating, 13 to 15 days
[10] = preemergence, 62 g ai/ha, 13 to 15 days
[11] = preemergence, 125 g ai/ha, 13 to 15 days, scale 0 to 100, 0 = no effect, 100 = complete control
[12] = 125 g ai/ha, visual injury, 0 to 100 scale, approx. 10 days
[13] = 500 g ai/ha, visual injury after approx. 10 days, 0 to 100 scale (0 no effect, 100 complete control)

CCCc1cc(C(=O)NCC)nn1Cc1cc(C(F)(F)F)nn1C [Compound 129]
Plant response rating (scale of 0 to 100 where 0 is no effect and 100 is complete control), Foxtail, Giant (foxtail, giant; [5]): 15
Foxtail, Giant plant response rating (foxtail, giant; [6]): 20
Plant response rating, Foxtail, Giant (foxtail, giant; [7]): 45
Plant response rating, Foxtail, Giant (foxtail, giant; [8]): 35
Plant response rating (scale of 0 to 100 where 0 is no effect and 100 is complete control), Nutsedge, Yellow (nutsedge, yellow; [5]): 0
Nutsedge, Yellow plant response rating (nutsedge, yellow; [6]): 0
Plant response rating, Nutsedge, Yellow (nutsedge, yellow; [7]): 5
Plant response rating, Nutsedge, Yellow (nutsedge, yellow; [8]): 5
Plant response rating (scale of 0 to 100), Soybean (soybean [1]; Preemergence, 250 g ai/ha): 98
Soybean plant response rating (soybean [1]; [9]): 40
Soybean plant response rating (soybean [1]; [10]): 55
Plant response rating, Soybean (soybean [1]; [11]): 98
Morningglory plant response rating (morningglory; Postemergence, 500 g ai/ha, 0 to 100 scale (0 no effect, 100 complete control)): 100
Morningglory plant response rating (morningglory; postemergence, 125 g ai/ha, about 10 days, visual rating on 0 to 100 scale (0 no effect, 100 complete control)): 90
Plant response rating (scale of 0 to 100 where 0 is no effect and 100 is complete control), Ragweed (ragweed [2]; [5]): 55
Ragweed plant response rating (ragweed [2]; [6]): 90
Plant response rating, Ragweed (ragweed [2]; [7]): 85
Plant response rating, Ragweed (ragweed [2]; [8]): 75
Plant response rating (scale of 0 to 100 where 0 is no effect and 100 is complete control), Johnsongrass (johnsongrass; [5]): 5
Johnsongrass plant response rating (johnsongrass; [6]): 10
Plant response rating, Johnsongrass (johnsongrass; [7]): 10
Plant response rating, Johnsongrass (johnsongrass; [8]): 10
Plant response rating (scale of 0 to 100), Barnyardgrass (barnyardgrass; Preemergence, 250 g ai/ha): 100
Barnyardgrass plant response rating (barnyardgrass; preemergence, 31 g ai/ha, 13 to 15 days): 95
Barnyardgrass plant response rating (barnyardgrass; [10]): 100
Plant response rating, Barnyardgrass (barnyardgrass; [11]): 100
Plant response rating (scale of 0 to 100 where 0 is no effect and 100 is complete control), Soybean (soybean [3]; [5]): 85
Soybean plant response rating (soybean [3]; [6]): 98
Plant response rating, Soybean (soybean [3]; [7]): 98
Plant response rating, Soybean (soybean [3]; [8]): 98
Plant response rating (scale of 0 to 100), Waterhemp (waterhemp; Preemergence, 250 g ai/ha): 100
Waterhemp plant response rating (waterhemp; [9]): 100
Waterhemp plant response rating (waterhemp; [10]): 100
Plant response rating, Waterhemp (waterhemp; [11]): 100
Plant response rating (scale of 0 to 100), Velvetleaf (velvetleaf; Preemergence, 250 g ai/ha): 100
Velvetleaf plant response rating (velvetleaf; [9]): 55
Velvetleaf plant response rating (velvetleaf; [10]): 100
Plant response rating, Velvetleaf (velvetleaf; [11]): 100
Plant response rating (scale of 0 to 100 where 0 is no effect and 100 is complete control), Oilseed Rape (oilseed rape; [5]): 60
Oilseed Rape plant response rating (oilseed rape; [6]): 60
Plant response rating, Oilseed Rape (oilseed rape; [7]): 70
Plant response rating, Oilseed Rape (oilseed rape; [8]): 65
Plant response rating (scale of 0 to 100), Ragweed (ragweed [4]; Preemergence, 250 g ai/ha): 100
Ragweed plant response rating (ragweed [4]; [9]): 85
Ragweed plant response rating (ragweed [4]; [10]): 90
Plant response rating, Ragweed (ragweed [4]; [11]): 98
Plant response rating (scale of 0 to 100 where 0 is no effect and 100 is complete control), Corn (corn; [5]): 10
Corn plant response rating (corn; [6]): 10
Plant response rating, Corn (corn; [7]): 15
Plant response rating, Corn (corn; [8]): 15
Crabgrass, Large plant response rating (crabgrass, large; [12]): 100
Crabgrass, Large plant response rating (crabgrass, large; [13]): 100
Wheat plant response rating (wheat; [12]): 50
Wheat plant response rating (wheat; [13]): 100
Plant response rating (scale of 0 to 100 where 0 is no effect and 100 is complete control), Ryegrass, Italian (ryegrass, Italian; [5]): 0
Ryegrass, Italian plant response rating (ryegrass, Italian; [6]): 5
Plant response rating, Ryegrass, Italian (ryegrass, Italian; [7]): 5
Plant response rating, Ryegrass, Italian (ryegrass, Italian; [8]): 5
